According to patent publication US20130224296A1, “Drug Formulations Using Water Soluble Antioxidants” (Bristol-Myers Squibb Company, priority 2010, published 2013):
≈ marks a conversion by molar mass, not a printed value.

Columns and labels:
[1] = Level of formaldehyde and formic acid in antioxidant containing Opadry films (GC); type: physicochemical; settings: Opadry II white film, sealed vials 60° C. for 5 days; 0.2% w/v BHT or 2% w/v ascorbic acid or propyl gallate in suspension
Experimental: Five hundred μL of the coating suspension was dispensed in 5 mL scintillation vials. Open vials were kept overnight at 40° C. to form a film. The vials were rubber stoppered and sealed. The sealed vials were kept at 60° C. for 5 days and analyzed for formaldehyde and formic acid levels by a GC method. […] These concentrations are on the higher end of the recommended use concentrations for each antioxidant and were used to test their maximum efficacy.

physchem = settings: water

O=C1O[C@H]([C@@H](O)CO)C(O)=C1O [Ascorbic acid]
Level of formaldehyde [1]: Not detected
Level of formic acid [1]: 184 ppm

Cc1cc(C(C)(C)C)c(O)c(C(C)(C)C)c1 [Butylated hydroxy toluene (BHT), Butylated hydroxy toluene]
Level of formaldehyde [1]: 95 ppm
Level of formic acid [1]: 1159 ppm
solubility (physchem): 0.6 to 1.1 µg/mL (≈ 0.00272 to 0.00499 mM)

CCCOC(=O)c1cc(O)c(O)c(O)c1 [Propyl gallate]
Level of formaldehyde [1]: Not detected
Level of formic acid [1]: 60 ppm
solubility (physchem): 3330 µg/mL (≈ 15.7 mM)
